Laboratory results reported in patent EP0671915B1, “USE OF IDAZOXAN AND DERIVATIVES THEREOF IN PREPARING A DRUG FOR TREATING PARKINSON'S DISEASE AND ITS DEVELOPMENT” (PIERRE FABRE MEDICAMENT, priority 1992, dated 1994).

What was measured:
[1] = Clinical study in idiopathic Parkinson's disease patients versus 1-DOPA: motor symptoms; type: in vivo; set-up: key: 0 : pas de changements par rapport à avant le traitement; + a +++ amélioration; + a +++ amélioration; + a +++ amélioration; settings: oral, 4 weeks; for symptômes précoces, persistance de l'amélioration après traitement / symptômes précoces, pendant traitement: eye blinking; for symptômes précoces, persistance de l'amélioration après traitement / symptômes tardifs, persistance de l'amélioration après traitement: after end of treatment; for symptômes précoces, pendant traitement / symptômes tardifs, pendant traitement: during treatment; for symptômes tardifs, persistance de l'amélioration après traitement / symptômes tardifs, pendant traitement: hypokinesia
Experimental: 20 patients ont été sélectionnés répondant aux critères idiopathiques de la maladie de Parkinson et une étude a été menée contre la 1-DOPA.
Les administrations sont effectuées pendant 4 semaines par voie orale dans une gamme de dose de 500 mg à 4 g par jour pour la 1-DOPA, et pour l'Idazoxan d'une dose initiale de 3 fois 5 mg par jour croissant à un maximum de 3 fois 40 mg par jour, le clinicien déterminant la posologie exacte pour chaque patient.
L'efficacité des traitements a été mesurée sur les symptômes moteurs, du type tremblement d'action, d'intention, de repos, sur l'hypokinésie (symptômes tardifs) et le clignement des paupières (symptôme précoce de la maladie). Les observations ont été faites pendant le traitement et après arrêt du traitement pour mettre en évidence la persistance éventuelle de l'amélioration des symptômes.

neurones dopaminergiques = assay: Mouse model of DSP4 + MPTP induced degeneration: cortical noradrenaline and striatal dopamine levels; type: in vivo, souris; set-up: key to Taux de NA cortical / Taux de DA striatale: * à *** niveau de dégénérescence estimé par la diminution des taux de NA cortical et DA striatale; * à *** niveau de dégénérescence estimé par la diminution des taux de NA cortical et DA striatale; * à *** niveau de dégénérescence estimé par la diminution des taux de NA cortical et DA striatale; settings: for Taux de DA striatale / Taux de NA cortical: mice given DSP4 and MPTP, then treated, measured after end of treatment, symbol = level of degeneration
[2] = depression; 5 to 40 mg, 3 times a day for 4 weeks; versus placebo; cited from earlier work
voie nigro-striée = assay: Squirrel monkey MPTP model with noradrenergic lesion (protocol analogous to Mavridis et al.); type: in vivo, singe écureuil; settings: behavioural, biochemical and histological results
Excerpt: L'emploi de l'idazoxan a également été étudié chez le singe écureuil selon un protocole analogue à celui de M. MAVRIDIS et al. Neuroscience 41,507 (1991).
Les résultats comportementaux, biochimiques et histologiques montrent qu'une lésion du système noradrénergique induit une dégénération de la voie nigrostriée après administration du MPTP.

Structure (SMILES)	symptômes précoces, persistance de l'amélioration après traitement [1]	symptômes précoces, pendant traitement [1]	symptômes tardifs, persistance de l'amélioration après traitement [1]	symptômes tardifs, pendant traitement [1]	Taux de DA striatale (neurones dopaminergiques)	Taux de NA cortical (neurones dopaminergiques)	échelle de Hamilton [2]	dégénérescence de neurones dopaminergiques provoquée par le DSP4 et la MPTP (neurones dopaminergiques; shown by slower fall of striatal dopamine compared with 1-DOPA (Groupe F) or apomorphine (Groupe G))	effet de la lésion de la voie nigro-striée (voie nigro-striée)
N[C@@H](Cc1ccc(O)c(O)c1)C(=O)O [1-DOPA, reference compound]	0	+++	0	+++					
CN1CCc2cccc3c2[C@H]1Cc1ccc(O)c(O)c1-3 [G, apomorphine, reference compound]					***	*			
c1ccc2c(c1)OCC(C1=NCCN1)O2 (stereo not drawn) [idazoxan, 2-(2-(1,4-benzodioxanyl))-2-imidazoline]	++	++	+	+	*	*	amélioration significative	ralentissement de la dégénérescence de neurones dopaminergiques	diminue l'effet de la lésion de la voie nigro-striée et améliore l'évolution
